Source: patent publication US20060039866A1, “Method for treating sleep-related breathing disorders” (Cypress Bioscience, Inc., priority 2004, published 2006)

How the values were obtained:
[1] = treating OSA with MER 810; conditions: in vivo
Source text: The latter has been associated with worsening OSA symptoms due to reduction in upper airway tone in animal models. However, this pharmacology may also increase SWS and increase respiratory drive via peripheral effects, while its serotonin (5-HT) reuptake inhibition and 5-HT1A agonist activities decrease REM sleep. The 5-HT1A agonist activity also increases respiratory drive and may increase upper airway muscle tone (Homer). Adding a noradrenergic alpha1 agonist, alpha2 antagonist or reuptake inhibitor bolsters the latter effect.

[2] = tested on: patients with sleep apnea; conditions: cited from earlier work; for benefit in OSAS / obstructive sleep apnea: individuals with obstructive apnea
[3] = tested on: animal model of sleep apnea; conditions: cited from earlier work
rat model = conditions: cited from earlier work
[4] = individuals with obstructive sleep apnea

With `CC1CN(c2cccc(Cl)c2)CCN1CCCn1nc2ccccn2c1=O` (stereo not shown) [MER 810] the “effectiveness in treating OSA” value [1] was “quite effective”.
For `CNCCCC1c2ccccc2C=Cc2ccccc21` [Protriptyline], the “results of several small trials” value ([2]; individuals with OSAS) is listed as “variable results” and the side effects ([2]; several small trials) is listed as “frequent and significant side effects”.
For `CC(=O)Nc1nnc(S(N)(=O)=O)s1` [acetazolamide, N-(5-[Aminosulfonyl]-1,3,4-thiadiazol-2-yl)acetamide], the apnea/hypopnea frequency ([2]; Whyte et al., Sleep) is listed as “improvement in apnea/hypopnea frequency” and the “frequency of 4% desaturation” value ([2]; Whyte et al., Sleep) is listed as “decreased the frequency of 4% desaturation”.
For `Nc1ncnc2c1ncn2[C@@H]1O[C@H](CO)[C@@H](O)[C@H]1O` [adenosine], the reducing apnea [3] is given as “somewhat effective”.
For `CCN1CC(CCN2CCOCC2)C(c2ccccc2)(c2ccccc2)C1=O` (stereo not shown) [doxapram], the “average arterial oxygen saturation” value [2, 4] is given as “did not alter” and the length of apneas [2, 4] is given as “decrease the length of apneas”.
For `CN1CCN2c3ncccc3Cc3ccccc3C2C1` (stereo not shown) [mirtazapine, 1,2,3,4,10,14b-hexahydro-2-methylpyrazino[2,1-a]pyrido[2,3-c]benzazepine], the “efficacy in the rat model” value (rat model) is listed as “appeared effective”.
For `C=CCN1CC[C@]23c4c5ccc(O)c4O[C@H]2C(=O)CC[C@@]3(O)[C@H]1C5` [naloxone], the “benefit in OSAS / obstructive sleep apnea” value [2] is listed as “only slightly helpful”.
For `Cn1c(=O)c2[nH]cnc2n(C)c1=O` [theophylline], the “benefit in OSAS / obstructive sleep apnea” value [2] is listed as “of no use” and the “benefit in central apnea” value ([2]; patients with central apnea) is listed as “may benefit”.
For medroxyprogesterone, the “benefit in OSAS / obstructive sleep apnea” value [2] is given as “no consistent benefit”.
